Results as given in ChEMBL document CHEMBL4627246, “Pyroglutamide-Based P2X7 Receptor Antagonists Targeting Inflammatory Bowel Disease” (J Med Chem, 2020).

What was measured:
Format in all cases: cell-based
[1] = test system: CCRF-CEM; assay: Cytotoxicity against human CCRF-CEM cells assessed as effect on cell growth at 10 uM incubated for 48 hrs by sulforhodamine B assay
[2] = test system: SR; assay: Cytotoxicity against human SR cells assessed as effect on cell growth at 10 uM incubated for 48 hrs by sulforhodamine B assay
[3] = test system: K562; assay: Cytotoxicity against human K562 cells assessed as effect on cell growth at 10 uM incubated for 48 hrs by sulforhodamine B assay; conditions: k562, 48 h
[4] = test system: HOP-62; assay: Cytotoxicity against human HOP62 cells assessed as effect on cell growth at 10 uM incubated for 48 hrs by sulforhodamine B assay; conditions: hop-62, 48 h
[5] = test system: COLO 205; assay: Cytotoxicity against human COLO205 cells assessed as effect on cell growth at 10 uM incubated for 48 hrs by sulforhodamine B assay; conditions: colo 205, 48 h
[6] = test system: HCC 2998; assay: Cytotoxicity against human HCC2998 cells assessed as effect on cell growth at 10 uM incubated for 48 hrs by sulforhodamine B assay; conditions: hcc 2998, 48 h
[7] = test system: SF-539; assay: Cytotoxicity against human SF539 cells assessed as effect on cell growth at 10 uM incubated for 48 hrs by sulforhodamine B assay; conditions: sf-539, 48 h
[8] = test system: MDA-MB-435; assay: Cytotoxicity against human MDA-MB-435 cells assessed as effect on cell growth at 10 uM incubated for 48 hrs by sulforhodamine B assay; conditions: mda-mb-435, 48 h
[9] = test system: SK-MEL-28; assay: Cytotoxicity against human SK-MEL-28 cells assessed as effect on cell growth at 10 uM incubated for 48 hrs by sulforhodamine B assay; conditions: sk-mel-28, 48 h
[10] = test system: UACC-257; assay: Cytotoxicity against human UACC257 cells assessed as effect on cell growth at 10 uM incubated for 48 hrs by sulforhodamine B assay; conditions: uacc-257, 48 h
[11] = test system: OVCAR-3; assay: Cytotoxicity against human OVCAR3 cells assessed as effect on cell growth at 10 uM incubated for 48 hrs by sulforhodamine B assay; conditions: ovcar-3, 48 h
[12] = test system: NCI/ADR-RES; assay: Cytotoxicity against human NCI/ADR-RES cells assessed as effect on cell growth at 10 uM incubated for 48 hrs by sulforhodamine B assay
[13] = test system: A498; assay: Cytotoxicity against human A498 cells assessed as effect on cell growth at 10 uM incubated for 48 hrs by sulforhodamine B assay; conditions: a498, 48 h
[14] = test system: ACHN; assay: Cytotoxicity against human ACHN cells assessed as effect on cell growth at 10 uM incubated for 48 hrs by sulforhodamine B assay
[15] = test system: CAKI-1; assay: Growth inhibition of human Caki1 cells assessed as growth percentage at 10 uM incubated for 48 hrs by sulforhodamine B assay; conditions: caki-1, 48 h
[16] = test system: RXF 393; assay: Cytotoxicity against human RXF393 cells assessed as effect on cell growth at 10 uM incubated for 48 hrs by sulforhodamine B assay; conditions: rxf 393, 48 h
[17] = test system: SN12C; assay: Cytotoxicity against human SN12C cells assessed as effect on cell growth at 10 uM incubated for 48 hrs by sulforhodamine B assay
[18] = test system: TK-10; assay: Cytotoxicity against human TK10 cells assessed as effect on cell growth at 10 uM incubated for 48 hrs by sulforhodamine B assay; conditions: tk-10, 48 h
[19] = test system: UO-31; assay: Cytotoxicity against human UO31 cells assessed as effect on cell growth at 10 uM incubated for 48 hrs by sulforhodamine B assay; conditions: uo-31, 48 h
[20] = test system: Hs-578T; assay: Cytotoxicity against human Hs 578T cells assessed as effect on cell growth at 10 uM incubated for 48 hrs by sulforhodamine B assay

Measured: Activity

COc1ccc(N2C(=O)[C@@H]3C/C(=C\N(C)C)C(=O)N3C2N(C)C)cc1 (stereo not given in full)
Non-Toxic: all assays above

O=C(NCc1ccccc1Cl)[C@@H]1CCC(=O)N1Cc1ccccc1Cl
Non-Toxic: all assays above

O=C(NCc1ccc(Cl)cc1Cl)[C@@H]1CCC(=O)N1c1cncs1
Non-Toxic: all assays above

COc1ccc(N2C(=O)CC[C@H]2C(=O)NCc2ccc(Cl)cc2Cl)cc1
Non-Toxic: all assays above

O=C(NCc1ccccc1Cl)[C@@H]1CCC(=O)N1Cc1ccc(Cl)cc1
Non-Toxic: all assays above

O=C(Nc1ccc(Cl)cc1Cl)[C@@H]1CCC(=O)N1Cc1ccccc1Cl
Non-Toxic: all assays above

O=C(NCc1ccc(Cl)cc1Cl)[C@@H]1CCC(=O)N1Cc1ccc(Cl)cc1
Non-Toxic: all assays above

CCCCCCN1C(=O)[C@@H]2C/C(=C\N(C)C)C(=O)N2C1N(C)C (stereo not given in full)
Non-Toxic: all assays above

N#Cc1ccc(N2C(=O)CC[C@H]2C(=O)NCc2ccc(Cl)cc2Cl)cc1
Non-Toxic: all assays above
